Earlier results as cited in patent publication US7994157B2, “Method for dispersing plant sterol for beverage and a plant sterol-dispersed beverage, of which particle size is nanometer-scale in dispersed beverage” (KIP Biotech LLC, priority 2000, dated 2011).

Test system: serum cholesterol level
Conditions: applied form in an oil phase (margarine); U.S. Pat. No. 5,502,045

## sitostanol fatty acid ester
  reduction of the LDL-C level: ≤ 16%
